In PubChem BioAssay (NCI):
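96-well plates; 48 h exposure; 5 concentrations. Endpoints by linear interpolation between flanking doses. Not reached: highest tested concentration assigned. Abbreviation: GI50, concentration required for 50% inhibition of growth. The concentration for full growth arrest is given as TGI.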

Key:
Assay in all cases: DTP human tumour cell line panel, 48 h
MDA-MB-435 = test system: MDA-MB-435
NCI/ADR-RES ovarian = test system: NCI/ADR-RES ovarian
MDA-N = test system: MDA-N
XF 498 CNS = test system: XF 498 CNS
M19-MEL melanoma = test system: M19-MEL melanoma
LXFL 529 NSCLC = test system: LXFL 529 NSCLC
KM20L2 colon = test system: KM20L2 colon
DMS 114 small cell lung = test system: DMS 114 small cell lung

SMILES | TGI (MDA-MB-435) [µM] | TGI (NCI/ADR-RES ovarian) [µM] | TGI (MDA-N) [µM] | GI50 (NCI/ADR-RES ovarian) [µM] | TGI (XF 498 CNS) [µM] | TGI (M19-MEL melanoma) [µM] | TGI (LXFL 529 NSCLC) [µM] | TGI (KM20L2 colon) [µM] | TGI (DMS 114 small cell lung) [µM] | GI50 (MDA-MB-435) [µM]
N#CC1C=Cc2ccccc2N1C(=O)Oc1ccccc1 (stereo unspecified) | 58.7 | > 100 | > 100 |  |  |  |  |  |  | 
O=C(Cc1ccccc1)NN1C(=O)/C(=C\c2ccc(O)cc2)SC1=Nc1ccccc1 | > 100 | > 100 | > 100 |  |  |  |  |  |  | 
CC1(C)CC[C@]2(C(N)=O)CC[C@]3(C)C(=CC[C@@H]4[C@@]5(C)C/C(=C/c6ccncc6)C(=O)C(C)(C)[C@@H]5CC[C@]43C)[C@@H]2C1 |  | 6.99 |  | 2.42 |  |  |  |  |  | 
COC(=O)/C(=N\NC(N)=S)C(C#N)c1ccccc1 (stereo unspecified) |  |  |  |  | > 100 | > 100 | > 100 | > 100 | > 100 | 
COc1cc([N+](=O)[O-])c2ncccc2c1[N+](=O)[O-] | 15.1 | 10.8 |  | 2.8 |  |  |  |  |  | 3.9
CC1CC2(C)CC(=O)C1C1C(=O)N(CCN3CCCCC3)C(=O)C12 (stereo unspecified) | > 100 | > 100 |  | > 100 |  |  |  |  |  | > 100
CC(=O)N(Cc1ccccc1)c1ccccc1I(=O)=O | > 100 | > 100 |  | 37.8 |  |  |  |  |  | 49.9
CC/C=C\C/C=C\C[C@H](O)C/C=C1/C(=O)C=C[C@@H]1C/C=C\CCCC(=O)OC | 6.26 | 7.41 |  | 1.78 |  |  |  |  |  | 1.21
CC1=C(C(=O)Nc2ccc(Cl)c(Cl)c2)C(c2ccccc2O)NC(=O)N1 (stereo unspecified) | > 50 | > 50 |  | > 50 |  |  |  |  |  | 27.4
Cc1ccc(NC(=O)CC(=O)N2N=C(N(CCC#N)c3cccc(C)c3)CC2c2ccccc2)cc1 (stereo unspecified) |  |  |  |  |  | > 100 | > 100 | > 100 | > 100 | 
O=C1CN(/N=C/c2ccc(-c3ccc(F)cc3)o2)C(=O)N1 | 41.1 | > 100 | 38.6 |  |  |  |  |  |  | 
COc1cccc(C2NC(=S)NC(C)=C2C(=O)Nc2ccc(Cl)c(Cl)c2)c1 (stereo unspecified) | 16.8 | > 50 |  | > 50 |  |  |  |  |  | 8.22
Cc1nc(-n2nc(-c3ccccc3)cc2-c2ccccc2)sc1C(/C=C/c1ccc([N+](=O)[O-])cc1)=N/NC(=O)c1ccncc1 |  |  |  |  |  | 92.6 | 43.2 | > 100 | 58.5 | 
CC1OC(OC2CCC3(C=O)C4CCC5(C)C(C6=CC(=O)OC6)CCC5(O)C4CCC3(O)C2)C(O)C(O)C1O (stereo unspecified) | 7.77e-05 | 6.17e-05 | 7.94e-05 |  |  |  |  |  |  | 
Cc1cc(Cl)ccc1Nc1nc(C(F)(F)F)ccc1C(=O)N1CCN(c2cccc(Cl)c2)CC1 | > 100 | > 100 |  | > 100 |  |  |  |  |  | > 100
COC(OC)c1cc2c(cc1C(=O)[C@@]13CCC[C@@H]1NC(=O)O3)OCO2 |  |  |  |  | > 100 | > 100 |  |  | > 100 | 
CCOc1cc(-c2ccc[nH]2)[nH]c1/C=C1\N=C(C)C(C(=O)OC)=C1C | 1.05 | 1.47 |  | 0.0432 |  |  |  |  |  | 0.0325
N=C1C=C(N)C(=O)c2[nH]c(=O)ccc21 | 2.3 | 4.86 | 2.28 |  |  |  |  |  |  | 
OCNCCNc1nc2ccccc2c2[nH]c3ccccc3c12 | 5.11 | 22.6 |  | 7.17 |  |  |  |  |  | 1.46
CCSC(SCC)=C1C(=O)N(c2ccccc2)N=C1C |  |  |  |  | 22.7 | 1.83 | 22.6 | 30.5 |  | 
COc1cc(NC(=O)Nc2cnc(Nc3ccc(N4CCOCC4)cc3)nc2Oc2cccc(OC)c2)cc(OC)c1 | 11.5 | > 50 |  | 4.04 |  |  |  |  |  | 1.99
O=c1[nH]c2ccccc2n1-c1n[nH]c2ccccc12 | 57.4 | > 100 |  | 30.3 |  |  |  |  |  | 23.7
O=C(Nc1ccccc1C(=O)N/N=C(\c1ccccc1)c1ccccn1)c1ccc(F)cc1 | > 100 | > 19.7 |  | 0.105 |  |  |  |  |  | 0.602
Cc1cc([N+](=O)[O-])c(C)c(Br)c1C | > 100 | > 100 | > 100 |  |  |  |  |  |  | 
O=C(NCCCCCCCNC(=O)OCc1ccc2c(Cl)cc(Cl)c(O)c2n1)OCc1ccc2c(Cl)cc(Cl)c(O)c2n1 | 0.931 | 3.59 |  | 0.338 |  |  |  |  |  | 0.297
CSC1=NCC2(S1)c1ccccc1N(C(=O)OC(C)(C)C)C2N1CCCCC1 (stereo unspecified) |  | > 100 |  | > 100 |  |  |  |  |  | 
CN1CCN(c2nc(-c3ccncc3)nc3sc4c(c23)CCCCCC4)CC1 | 26 | 24.5 |  | 8.17 |  |  |  |  |  | 11.8
CC(NC(=O)c1ccccc1)(C(=O)O)C(=O)O | > 100 | > 100 | > 100 |  |  |  |  |  |  | 
